Data on four compounds can be found in PMC10828444, “Selective inhibition of overactive warmth-sensitive Ca^2+-permeable TRPV3 channels by antispasmodic agent flopropione for alleviation of skin inflammation” (The Journal of Biological Chemistry, 2023).

pIC50: −log10 of the molar value. Like-named read-outs stand apart in the source and are kept apart here.

Test [1] addresses T1, hTRPV3 single channel (Homo sapiens, UniProt Q8NET8).
T1 construct: expressed in transfected cells; host or cells: HEK293
T1 sequence (Q8NET8 1-790): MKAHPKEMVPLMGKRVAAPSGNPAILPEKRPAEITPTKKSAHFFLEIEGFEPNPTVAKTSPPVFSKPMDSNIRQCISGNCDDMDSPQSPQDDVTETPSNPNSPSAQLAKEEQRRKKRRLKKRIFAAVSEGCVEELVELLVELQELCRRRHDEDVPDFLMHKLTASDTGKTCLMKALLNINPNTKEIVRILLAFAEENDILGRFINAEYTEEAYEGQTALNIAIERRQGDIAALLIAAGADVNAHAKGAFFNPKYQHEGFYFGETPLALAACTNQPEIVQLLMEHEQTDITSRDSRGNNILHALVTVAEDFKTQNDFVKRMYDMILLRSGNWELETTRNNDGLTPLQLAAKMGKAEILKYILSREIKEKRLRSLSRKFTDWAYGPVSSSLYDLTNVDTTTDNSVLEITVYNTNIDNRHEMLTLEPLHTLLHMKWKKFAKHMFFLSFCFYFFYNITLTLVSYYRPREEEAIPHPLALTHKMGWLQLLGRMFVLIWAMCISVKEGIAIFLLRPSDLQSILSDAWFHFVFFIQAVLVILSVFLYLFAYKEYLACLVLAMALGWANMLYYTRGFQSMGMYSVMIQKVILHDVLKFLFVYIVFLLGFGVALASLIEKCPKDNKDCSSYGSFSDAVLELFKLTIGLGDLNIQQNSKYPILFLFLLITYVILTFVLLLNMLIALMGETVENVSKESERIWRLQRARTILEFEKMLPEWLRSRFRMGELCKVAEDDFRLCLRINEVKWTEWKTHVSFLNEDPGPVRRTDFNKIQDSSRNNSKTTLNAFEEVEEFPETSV
As to the kind of experiment: Inside-out single-channel recordings of TRPV3 in HEK293 cells. It counts as cell-based. Conditions: agonist 2-APB 30 μmol/L alone, −60 mV. An excerpt:
For single-channel recordings, borosilicate glass pipettes were pulled from borosilicate glass capillaries and fire-polished to the resistance between 6 and 10 MΩ using a DMZ universal electrode puller (Zeitz-Instruments, GmbH). For inside-out single-channel recordings, both pipette and external solutions contained (in mM): 130 NaCl, three HEPES, and 0.2 EDTA (pH = 7.4). Membrane potential was clamped at −60 mV and currents were digitized at 10 kHz and filtered at 2 kHz.

The subject of test [2] is TRPV3. The following applies: cited from earlier work.
The subject of test [3] is TRPV2. Set-up: method as in PMID 33876725. The following applies: ref [18]; read-out: IC50 TRPV2 currents; cited from earlier work.
In test [4] the test system is TRPM8. On the set-up: method as in PMID 33876725. Conditions: ref [18]; read-out: IC50 TRPM8 currents; cited from earlier work.
Test [5] has as its system TRPV1. Set-up: method as in PMID 30108138, PMID 27160770. The following applies: ref [16], [42]; cited from earlier work.
The subject of test [6] is TRPV4. Set-up: method as in PMID 30108138, PMID 27160770. The following applies: ref [16], [42]; cited from earlier work.
Test [7] concerns TRPA1. On the set-up: method as in PMID 30377214. Conditions: ref [17]; cited from earlier work.

For the compound `NCCOB(c1ccccc1)c1ccccc1` [2-APB, 2-aminoethoxydiphenyl borate], in test [1], the single-channel conductance entry is reported as “about 170.9 ± 4.8 pS” and the single-channel open probability is recorded as 0.75.
A word on the pIC50: it is −log10 of the IC50, conventionally taken in molar units. On to `CCCCOc1ccc(C(=O)CCN2CCCCC2)cc1` [dyclonine], for which the pIC50 was approximately 5.49 in test [2] (ref [18], read-out: IC50 TRPV3 currents); 4.51 in test [3]; 4.09 in test [4].
Consider `COc1ccc2ccc(=O)oc2c1CC=C(C)C` [osthole], for which, in test [2] (ref [16], [42], read-out: IC50 TRPV3), the pIC50 is approximately 4.43. Also, in test [5], the “inhibition of TRPV1” value was “weak inhibition”. For the same compound, in test [6], the “inhibition of TRPV4” value was “weak inhibition”.
Consider forsythoside B, for which, in test [2] (ref [17], read-out: IC50 TRPV3 currents), the pIC50 is approximately 5.17. Further, the “inhibition of TRPA1 currents” value in test [7] is “weak inhibition”.
